What was measured:
[1] = system: Ouabain Induced Arrhythmias; assay: Ouabain induced arrhythmias, correction by i.v. infusion; assay type: in vivo, adult mongrel dogs; conditions: Ouabain-Induced arrhythmia, dogs under barbiturate anesthesia, infusion into femoral vein at 1 mg/kg/min
Method: correction of existing cardiac arrhythmias of ventri- cular origin was carried out on (1) adult mongrel dogs which were under barbiturate anesthesia during the test. A Grass Model 7 polygraph was used for recording femoral arterial blood pressure (Statham P23AC transducer) and the electrocardiogram (Grass 7P4 preamplifier). Ouabain was given intravenously in an initial dose of 40 µg/kg and in a second dose of […] 30 minutes after the first dose and in subsequent doses of 10 µg/kg which were repeated at 1.5 min. intervals as required for producing cardiac arrhythmias that persisted for at least 15 minutes. When the arrhythmias were established, the test compounds were administered by infusion (Harvard Model 942 Infusion Pump) into a femoral vein at a rate of 1 mg/kg/min. Concentration of compound was adjusted according to the weight of the dog to allow a volume infusion of 1 ml/min. The compound was considered to be active as an antiarrhythmic agent if reversion to the sinus rhythm occurred and this was maintained for at least 30 min.

[2] = system: Coronary Artery Ligation Induced Arrhythmias; assay: Coronary artery ligation induced arrhythmias; assay type: in vivo, Adult mongrel dogs; conditions: I.V.; Coronary Artery Ligation Induced arrhythmia; conscious dogs; infusion into saphenous vein at 0.5 mg/kg/min
Method: Adult mongrel dogs which were in the conscious state were used for the test and cardiac arrhythmias were induced by prior (22-24 hr) surgical preparation in which blood flow through a coronary artery was occluded by use of a constrictor device as reported by Smith et al, 1973. A Grass Model 79 polygraph was used for recording the electrocardiogram (Grass 7P4 preamplifier).
The test compound was administered by infusion (Harvard Model 942 Infusion Pump) into a sapheneous vein to one group of dogs at a rate of 0.5 mg/kg/min. Concentration of compound was adjusted according to the weight of the dog to allow a volume of infusion of 0.5 ml/min. The test compound was administered orally by gavage to another group of dogs at dose levels of 10 to 40 mg/kg. The test compound was prepared in distilled water to give a total volume of 20 ml. Following the administration of the test compound, the heart rate, number of ectopic cardiac beats per min, and the percent ectopic beats (ectopic beats/BR X100) were recorded at 15 min. intervals. The compound was considered active if it abolished the ectopic ventricular frequency and caused a return to normal sinus rhythm within 2 hours of administration.

Substance: N'-[2-(Diethylamino)ethyl]-N-(1-methylethyl)-N[2-(phenylsulphonyl)ethyl]urea maleate[1:1] [Example 9]
- Correcting Dose Range [1]: 4 to 15 mg/kg
- Correcting Dose Range [2]: 2 to 5 mg/kg

Reference: patent EP0066415A2, “N-(arylthioalkyl)-N'-(aminoalkyl)ureas” (A.H. ROBINS COMPANY, INCORPORATED, priority 1981, dated 1982)
